pIC50: −log10 of the molar value. A value given as a limit tells only on which side of the number the result lay.

This note sets out measurements from patent US20230279020A9, “CARM1 INHIBITORS AND USES THEREOF” (Epizyme, Inc., priority 2013, published 2023).

Sequence of Human CARM1 (PRMT4) (Q86X55 other isoform, or with tags, fused parts or gaps isoform Q86X55-1): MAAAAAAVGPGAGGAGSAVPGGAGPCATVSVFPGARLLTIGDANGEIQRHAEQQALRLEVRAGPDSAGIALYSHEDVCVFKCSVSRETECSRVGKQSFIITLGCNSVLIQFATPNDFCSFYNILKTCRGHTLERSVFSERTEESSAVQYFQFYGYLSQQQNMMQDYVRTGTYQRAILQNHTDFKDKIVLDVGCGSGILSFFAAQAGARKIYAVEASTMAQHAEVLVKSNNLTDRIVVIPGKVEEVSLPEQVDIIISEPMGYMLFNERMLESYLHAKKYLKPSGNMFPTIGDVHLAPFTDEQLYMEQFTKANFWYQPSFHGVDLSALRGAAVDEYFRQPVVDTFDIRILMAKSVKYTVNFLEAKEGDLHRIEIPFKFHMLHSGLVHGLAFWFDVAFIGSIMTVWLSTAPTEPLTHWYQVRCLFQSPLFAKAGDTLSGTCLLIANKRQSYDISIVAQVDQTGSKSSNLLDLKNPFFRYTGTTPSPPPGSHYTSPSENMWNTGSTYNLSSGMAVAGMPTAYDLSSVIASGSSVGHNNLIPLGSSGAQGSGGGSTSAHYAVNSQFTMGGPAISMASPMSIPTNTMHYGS

The target in the test is Human CARM1 (PRMT4) (Homo sapiens (Human), UniProt Q86X55). The experiment in a line: CARM1 enzyme assay on peptide substrate (3H-SAM Flashplate). Particulars: Biochemical potencies, classification codes; read-out: Biochem IC50. The text has this:
S-adenosylmethionine (SAM), S-adenosylhomocysteine (SAH), bicine, Tween20, dimethylsulfoxide (DMSO), bovine skin gelatin (BSG), sodium butyrate and Tris(2-carboxyethyl)phosphine hydrochloride solution (TCEP) were purchased from Sigma-Aldrich at the highest level of purity possible. ^3H-SAM was purchase from American Radiolabeled Chemicals with a specific activity of 80 Ci/mmol. 384-well streptavidin Flashplates were purchased from PerkinElmer.
Peptide representative of human histone H3 residues 16-30 was synthesized with an N-terminal linker-affinity tag motif and a C-terminal amide cap by 21st Century Biochemicals. […] The sequence was Biot-Ahx-[…]-amide and contained a monomethylated arginine at position 26 (SEQ ID NO.:1).
The gene sequence encoding isoform1 containing a deletion of amino acids 539-561 was amplified subsequently and subcloned into pFastBacMam (Viva Biotech).
Recombinant baculovirus were generated according to Bac-to-Bac kit instructions (Life Technologies). Protein over-expression was accomplished by infecting exponentially growing HEK 293F cell culture at 1.3×10^6cell/ml with virus (MOI=10) in the presence of 8 mM sodium butyrate. Infections were carried out at 37° C. for 48 hours, harvested by centrifugation, and stored at −80° C. for purification.
Expressed full-length human Flag- and His-tagged CARM1 protein was purified from cell paste by anti-flag M2 affinity chromatography with resin equilibrated with buffer containing 20 mM Tris, 150 mM NaCl, 5% glycerol, pH 7.8. Column was washed with 500 mM NaCl in buffer A and Flag-CARM1-His was eluted with 200 ug/ml FLAG peptide in buffer A. Pooled fractions were dialyzed in 20 mM Tris, 150 mM NaCl, 5% glycerol and 1 mM DTT, pH 7.8.
The assays were all performed in a buffer consisting of 20 mM Bicine (pH=7.6), 1 mM TCEP, 0.005% BSG, and 0.002% Tween 20, prepared on the day of use. Compounds in 100% DMSO (1 ul) were spotted into a polypropylene 384-well V-bottom plates (Greiner) using a Platemate Plus outfitted with a 384-channel head (Thermo Scientific). DMSO (1 ul) was added to Columns 11, 12, 23, 24, rows A-H for the maximum signal control and 1 ul of SAH, a known product and inhibitor of CARM1, was added to columns 11, 12, 23, 24, rows I-P for the minimum signal control. A cocktail (40 ul) containing the CARM1 enzyme was added by Multidrop Combi (Thermo-Fisher). The compounds were allowed to incubate with CARM1 for 30 min at room temperature, then a cocktail (10 ul) containing ^3H-SAM and peptide was added to initiate the reaction (final volume=51 ul). The final concentrations of the components were as follows: CARM1 was 0.25 nM, ^3H-SAM was 30 nM, peptide was 250 nM, SAH in the minimum signal control wells was 1 mM, and the DMSO concentration was 2%. The assays were stopped by the addition of non-radiolabeled SAM (10 ul) to a final concentration of 300 uM, which dilutes the ^3H-SAM to a level where its incorporation into the peptide substrate is no longer detectable. 50 ul of the reaction in the 384-well polypropylene plate was then transferred to a 384-well Flashplate and the biotinylated peptides were allowed to bind to the streptavidin surface for at least 1 hour before being washed once with 0.1% Tween20 in a Biotek ELx405 plate washer. The plates were then read in a PerkinElmer TopCount plate reader to measure the quantity of ^3H-labeled peptide bound to the Flashplate surface, measured as disintegrations per minute (dpm) or alternatively, referred to as counts per minute (cpm).
where dpm=disintegrations per minute, cmpd=signal in assay well, and min and max are the respective minimum and maximum signal controls.
where top and bottom are the normally allowed to float, but may be fixed at 100 or 0 respectively in a 3-parameter fit. The Hill Coefficient normally allowed to float but may also be fixed at 1 in a 3-parameter fit. Y is the % inhibition and X is the compound concentration.
On to `CNC[C@@H](O)COc1ccc(F)c(-c2nc(NC3CCN(C(=O)OC)CC3)c(C)c(-c3c(C)noc3C)n2)c1` [Example 40-3], for which the negative logarithm of the IC50 (pIC50) – broadly, the negative decadic logarithm of the IC50, by convention in mol/L – is above 7.00.
On to `CNCC(O)COc1cccc(-c2nc(-c3cnn(CC(C)C)c3)cc(N(C)CCC#N)n2)c1` (stereo not drawn) [Example 41-1], for which the negative logarithm of the IC50 (pIC50) was above 7.00.
With `CNCC(O)COc1cccc(-c2nc(N[C@H]3C[C@@H](O)C3)cc(-c3c(C)noc3C)n2)c1` (stereo partly drawn) [Example 41-1a], the negative-log IC50 (pIC50) was above 7.00.
On to `CNCC(O)COc1ccc(Cl)c(-c2nc(NCC3COCCO3)c(C)c(-c3c(C)noc3C)n2)c1` (stereo not drawn) [Example 41-3], for which the pIC50 is above 7.00.
As to `CNCC(O)COc1cccc(-c2nc(NCCCN3CCCC3=O)cc(C3=CCCC3)n2)c1` (stereo not drawn) [Example 42-1], the pIC50 was above 7.00.
On to `CNCC(O)COc1cccc(-c2nc(-c3c(C)noc3C)cc(N3CCC4(CC3)NC(=O)NC4=O)n2)c1` (stereo not drawn) [Example 42-1a], for which the pIC50 is above 7.00.
Turning to `CCOC(=O)N1CCOC[C@@H]1CNc1nc(-c2cc(OC[C@@H](O)CNC)ccc2Cl)nc(-c2c(C)noc2C)c1C` [Example 42-3], the negative logarithm of the IC50 (pIC50) was above 7.00.
Turning to `CNCC(O)COc1cccc(-c2nc(N[C@H]3C[C@H](O)C3)cc(-c3c(C)noc3C)n2)c1` (stereo partly drawn) [Example 43-1a], the negative logarithm of the IC50 (pIC50) was above 7.00.
As for `CNC[C@H](O)COc1ccc(Cl)c(-c2nc(N[C@H]3CCN(C4CC4)C[C@H]3F)c(C)c(-c3c(C)noc3C)n2)c1` [Example 43-3], the negative logarithm of the IC50 (pIC50) is above 7.00.
The figure for `CNCC(O)COc1cccc(-c2nc(N[C@@H]3CC[C@@H](O)C3)cc(-c3c(C)noc3C)n2)c1` (stereo partly drawn) [Example 44-1a] is above 7.00; for `CNC[C@@H](O)COc1ccc(Cl)c(-c2nc(N[C@H]3CCN(C4CC4)C[C@H]3F)c(C)c(-c3c(C)noc3C)n2)c1` [Example 44-3] it is above 7.00; for `CNCC(O)COc1cc(Cl)cc(-c2nc(N[C@H]3CCOC3)c(C)c(-c3ccncc3)n2)c1` (stereo partly drawn) [Example 45-1] it is above 7.00.
For `CNCC(O)COc1cccc(-c2nc(NC3CC(C(=O)OC)C3)cc(-c3c(C)noc3C)n2)c1` (stereo not drawn) [Example 45-1a], the negative-log IC50 (pIC50) is above 7.00.
As to `CNCC(O)COc1ccc(Cl)c(-c2nc(NC3CC4(C3)CN(C(=O)OC)C4)c(C)c(-c3c(C)noc3C)n2)c1` (stereo not drawn) [Example 45-3], the pIC50 was above 7.00.
Take `CNCC(O)COc1cccc(-c2nc(NC3CCOCC3)cc(-c3cc4ccccc4o3)n2)c1` (stereo not drawn) [Example 46-1]: the pIC50 is above 7.00.
For the compound `CNCC(O)COc1ccc(Cl)c(-c2nc(NC3CC(C)N(C(=O)OC)C(C)C3)c(C)c(-c3c(C)noc3C)n2)c1` (stereo not drawn) [Example 46-3], the pIC50 is above 7.00.
`CNCC(O)COc1cc(Cl)cc(-c2nc(NC3CCOCC3)c(C)c(-c3c(C)noc3C)n2)c1` (stereo not drawn) [Example 47-1a]: the pIC50 is above 7.00.
On to `CNCC(O)COc1cccc(-c2nc(-c3c(C)noc3C)c(C)c(N3CCNC(C(F)F)C3)n2)c1` (stereo not drawn) [Example 47-3], for which the pIC50 was above 7.00.
With `CNCC(O)COc1cccc(-c2nc(-c3ccc4c(c3)OCCO4)cc(N(C)CCC#N)n2)c1` (stereo not drawn) [Example 48-1] the figure was above 7.00; with `CCN1CCC[C@H]1CNc1nc(-c2cc(OC[C@@H](O)CNC)ccc2Cl)nc(-c2c(C)noc2C)c1C` [Example 48-3], above 7.00; with `CNCC(O)COc1cccc(-c2nc(-c3ccc(OC)c(OC)c3)cc(N(C)CCC#N)n2)c1` (stereo not drawn) [Example 49-1], above 7.00.
With `CNCC(O)COc1cccc(-c2nc(Nc3cnc(C)nc3)cc(-c3c(C)noc3C)n2)c1` (stereo not drawn) [Example 49-1a] the figure was above 7.00.
For the compound `CCOC(=O)N1CCC[C@@H]1CNc1nc(-c2cc(OC[C@@H](O)CNC)ccc2Cl)nc(-c2c(C)noc2C)c1C` [Example 49-3], the pIC50 is above 7.00.
The figure for `CNCC(O)COc1cccc(-c2nc(NCCCN3CCCC3=O)cc(-c3cncnc3)n2)c1` (stereo not drawn) [Example 50-1] is above 7.00.
Consider `CNCC(O)COc1cccc(-c2nc(-c3c(C)noc3C)cc(N(C)c3cncnc3)n2)c1` (stereo not drawn) [Example 50-1a], for which the pIC50 is above 7.00.
For `CNCC(O)COc1cccc(-c2nc(-c3c(C)noc3C)cc(N(C)c3cnc(OC)nc3)n2)c1` (stereo not drawn) [Example 51-1a], the pIC50 is above 7.00.
With `CNCC(O)COc1cccc(-c2nc(NC3CCOCC3)cc(-c3cccc4ncccc34)n2)c1` (stereo not drawn) [Example 53-1] the figure was above 7.00; with `CNCC(O)COc1cccc(-c2nc(SC)c(C)c(-c3c(C)noc3C)n2)c1` (stereo not drawn) [Example 53-1a], above 7.00; with `CNC[C@H](O)COc1ccc(Cl)c(-c2nc(N[C@H]3C[C@H](OC)C3)c(C)c(-c3c(C)noc3C)n2)c1` [Example 53-3], above 7.00.
Turning to `Cc1noc(C)c1-c1nc(-c2cccc(OCC(O)CN)c2)nc(NC2CCOCC2)c1C` (stereo not drawn) [Example 54-1a], the pIC50 was above 7.00.
Regarding `CNC[C@H](O)COc1ccc(Cl)c(-c2nc(N[C@H]3C[C@@H](OC)C3)c(C)c(-c3c(C)noc3C)n2)c1` [Example 54-3], the negative-log IC50 (pIC50) is above 7.00.
Take `CNCC(O)COc1cccc(-c2nc(-c3cnc4[nH]ccc4c3)cc(N(C)C3CCOCC3)n2)c1` (stereo not drawn) [Example 55-1]: the pIC50 is above 7.00.
Regarding `CNC[C@H](O)COc1cccc(-c2nc(NC3CCOCC3)c(C)c(-c3c(C)noc3C)n2)c1` [Example 55-1a], the negative-log IC50 (pIC50) was above 7.00.
Consider `CNC[C@H](O)COc1ccc(Cl)c(-c2nc(-c3c(C)noc3C)c(C)c(N3CC4(CCN(C5CC5)CC4)C3)n2)c1` [Example 55-3], for which the pIC50 is above 7.00.
Consider `CNCC(O)COc1cccc(-c2nc(-c3ccc(S(C)(=O)=O)cc3)cc(N(C)CCC#N)n2)c1` (stereo not drawn) [Example 56-1], for which the pIC50 was above 7.00.
As for `CNC[C@@H](O)COc1cccc(-c2nc(NC3CCOCC3)c(C)c(-c3c(C)noc3C)n2)c1` [Example 56-1a], the negative-log IC50 (pIC50) is above 7.00.
With `CCOC(=O)N1CCOC[C@@H]1CNc1nc(-c2cc(OC[C@H](O)CNC)ccc2Cl)nc(-c2c(C)noc2C)c1Cl` [Example 56-3] the figure was above 7.00; with `CNCC(O)COc1cccc(-c2nc(-c3ccnc(OC)c3)cc(N(CCOC)CCOC)n2)c1` (stereo not drawn) [Example 57-1], above 7.00; with `CNCC(O)COc1cccc(-c2nc(-c3c(C)noc3C)c(C)c(N3CCS(=O)(=O)CC3)n2)c1` (stereo not drawn) [Example 57-1a], above 7.00.
As for `CNCC(O)COc1ccc(Cl)c(-c2nc(N[C@H]3CCC[C@@H](OC)C3)c(C)c(-c3c(C)noc3C)n2)c1` (stereo partly drawn) [Example 57-3], the pIC50 was above 7.00.
As for `CNC[C@H](O)COc1ccc(Cl)c(-c2nc(NC[C@H]3COCCN3C(=O)OC)c(C)c(-c3c(C)noc3C)n2)c1` [Example 58-3], the pIC50 is above 7.00.
On to `CNCC(O)COc1cccc(-c2nc(-c3ccc4c(c3)OCCO4)cc(N(C)C3CCOCC3)n2)c1` (stereo not drawn) [Example 59-1], for which the negative logarithm of the IC50 (pIC50) was above 7.00.
Take `CNCC(O)COc1cccc(-c2nc(NC3CCS(=O)(=O)CC3)c(C)c(-c3c(C)noc3C)n2)c1` (stereo not drawn) [Example 59-1a]: the pIC50 was above 7.00.
`CCOC(=O)N1CCOC[C@H]1CNc1nc(-c2cc(OC[C@@H](O)CNC)ccc2F)nc(-c2c(C)noc2C)c1C` [Example 59-3]: the pIC50 is above 7.00.
For `CNCC(O)COc1cccc(-c2nc(NCCCN3CCCC3=O)cc(-c3ccnc(OC)c3)n2)c1` (stereo not drawn) [Example 60-1], the pIC50 is above 7.00.
With `CNCC(O)COc1cccc(-c2nc(NC3CCS(=O)(=O)CC3)cc(-c3c(C)noc3C)n2)c1` (stereo not drawn) [Example 60-1a], the negative-log IC50 (pIC50) was above 7.00.
On to `CCOC(=O)N1CCOC[C@H]1CNc1nc(-c2cc(OC[C@H](O)CNC)ccc2F)nc(-c2c(C)noc2C)c1C` [Example 60-3], for which the pIC50 is above 7.00.
Regarding `CNCC(O)COc1cccc(-c2nc(-c3c(C)noc3C)cc(N(C)c3cnc(C)nc3)n2)c1` (stereo not drawn) [Example 61-1a], the pIC50 is above 7.00.
